This is an account of results in ChEMBL document CHEMBL1148456, “Structure-based design and synthesis of non-nucleoside, potent, and orally bioavailable adenosine deaminase inhibitors” (J Med Chem, 2004).

In brackets after ≈: the same amount, converted by molar mass. Bounds are passed on as bounds.

For series [1], the system named is Mus musculus. Put plainly: Antitumor activity after administration (p.o.) in mice U937 cells at a dose of 32 mg/kg twice daily dosing (b.i.d.). The following applies: route oral. In kind it is functional, U-937.
Series [2] has as its system Mus musculus. Put plainly: Antitumor activity after administration (p.o.) in mice U937 cells at a dose of 10 mg/kg twice daily dosing (b.i.d.). In kind it is functional, U-937. The following applies: route oral.
Series [3] concerns Mus musculus. Description: Antitumor activity after administration (p.o.) in mice U937 cells at a dose of 32 mg/kg once daily dosing (u.i.d.). It counts as functional, U-937. The following applies: route oral.
A short description of series [4]: Oral bioavailability in dog (dose 10 mg/kg). It counts as ADME, organism-based, Canis lupus familiaris. The following applies: in vivo.
Series [5] can be described thus: (§1) In vitro clearance in rat liver microsomes. Particulars: read-out: Clearance. It counts as ADME, Microsome. (In general: Liver microsomes are vesicles of endoplasmic reticulum, rich in cytochrome P450 enzymes.)
Series [6] in a line: Maximum plasma concentration in rat after po administration. It counts as ADME, organism-based. Also on record: route oral.
Series [7] in a line: Half-life in rat after po administration at a dose of 10 mg/kg. In kind it is ADME, organism-based. Also on record: dose 10 mg/kg, route oral. Particulars: in vivo.
The species entered for series [8] is Canis familiaris. Description: (§2) In vitro clearance in dog liver microsomes. It counts as ADME, Canis lupus familiaris, Microsome.
Series [9] is described as follows: In vitro clearance in human liver microsomes. In kind it is ADME, Microsome. Particulars: read-out: Clearance.
Series [10] is described as follows: Oral bioavailability in rat (dose 10 mg/kg). In kind it is ADME, organism-based. Particulars: in vivo.
Series [11] is described as follows: Solubility was determined. It counts as physicochemical.
Series [12] is described as follows: AUC in rat after po administration at a dose of 10 mg/kg. In kind it is ADME, organism-based. Particulars: plasma, read-out: AUC 0-24h. Further details: dose 10 mg/kg, route oral.
The target of series [13] is T1, Adenosine deaminase (Homo sapiens) (UniProt P00813).
T1 sequence (whole entry): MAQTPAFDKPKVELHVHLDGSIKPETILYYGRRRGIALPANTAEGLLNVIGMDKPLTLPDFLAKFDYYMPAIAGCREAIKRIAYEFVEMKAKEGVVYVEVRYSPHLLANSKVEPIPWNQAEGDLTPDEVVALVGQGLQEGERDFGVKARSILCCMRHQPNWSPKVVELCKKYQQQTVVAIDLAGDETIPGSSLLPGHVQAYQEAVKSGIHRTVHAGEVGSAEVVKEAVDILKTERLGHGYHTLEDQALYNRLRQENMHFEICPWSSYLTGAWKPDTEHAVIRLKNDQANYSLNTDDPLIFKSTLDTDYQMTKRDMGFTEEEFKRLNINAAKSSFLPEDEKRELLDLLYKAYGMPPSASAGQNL
The following applies: Rattus norvegicus.
Description: In vivo anti-inflammatory activity against adenosine deaminase (ADA) in the adjuvant arthritis model in rat (p.o.)

The species named for series [14] is Rattus norvegicus. The description is as §1. In kind it is ADME, Microsome.
A short description of series [15]: as §2. It counts as ADME, Canis lupus familiaris, Microsome. Particulars: read-out: Clearance.
For series [16], the system named is Mus musculus. Description: Antitumor activity after administration (i.p.) in mice U937 cells at a dose of 0.025 mg/kg. In kind it is functional, U-937. The following applies: route intraperitoneal.
Series [17] concerns Mus musculus. Put plainly: Antitumor activity after administration (i.p.) in mice U937 cells at a dose of 2.5 mg/kg. The following applies: route intraperitoneal.
Series [18] relates to Mus musculus. Description: Antitumor activity after administration (i.p.) in mice U937 cells at a dose of 0.25 mg/kg. Particulars: route intraperitoneal.
In series [19] the test system is Mus musculus. Description: Antitumor activity after administration (p.o.) with U937 cells in mice at a dose of 10 mg/kg. It counts as functional, U-937. Particulars: route oral.

Consider `C[C@H](O)[C@@H](CCOc1ccc2ccccc2c1)n1cnc(C(N)=O)c1.Cl`, for which the MST in [1] is 42.5 days; in [2] it was 34 days; in [3], 38 days.

As a reminder, the bioavailability is dose-corrected exposure relative to a reference, in per cent. A high value points to good availability. By Cmax is commonly meant the peak of the concentration-time curve. The half-life is how long it takes for the measured level to halve. Low readings indicate rapid decline, high ones slow decline. As a reminder, the Solubility is how much of the substance goes into solution per volume. The term AUC denotes the area under the concentration-time curve, a measure of exposure. Turning to `C[C@H](O)[C@@H](CCOc1ccc2ccccc2c1)n1cnc(C(N)=O)c1`, the bioavailability in series [4] came out at 91%; in series [10] it was 42%. For the same molecule, the CLint scaled in series [5] is 79 mL/min/kg; in series [9] it was 3.8 mL/min/kg. This molecule also had a Cmax in [6] of 970 ng/mL. This molecule showed a half-life in series [7] of 1.12 h. Moreover, in [8], the Clearance was 11 mL/min/kg. Besides, the MST stood at 35.5 days in series [1], 30 days in series [2] and 30 days in series [3]. The concentration in solution in series [11] (Solubility) was 80 µg/mL (≈ 236 µM). The AUC in series [12] is 1850 ng·h/mL.

Turning to `C[C@H](O)[C@@H](CCc1cccc(Cl)c1Cl)n1cnc(C(N)=O)c1`, the figures for the bioavailability in series [4] and in series [10] were 43% and 44%, respectively. Moreover, the CLint scaled in series [5] came to 111 mL/min/kg; in series [9], 4.5 mL/min/kg. For the same molecule, in series [7], the half-life is 1.66 h. This molecule also came in with an ED30 in series [13] of 1.6 mg/kg. The molecule also had a Solubility in series [11] of 500 µg/mL (≈ 1460 µM). Also, in [12], the AUC worked out at 2110 ng·h/mL.

For `C[C@H](O)[C@@H](CCc1cccc2ccccc12)n1cnc(C(N)=O)c1`, the bioavailability in series [4] stood at 38%; in [10], 30%. Also, the CLint scaled in [5] worked out at 307 mL/min/kg; in series [9] it was 45 mL/min/kg. In series [7], this molecule had a half-life of 0.66 h. This molecule showed a Solubility in [11] of 481 µg/mL (≈ 1490 µM). The area under the curve (AUC) in series [12] worked out at 1370 ng·h/mL.

Take `Cn1c(CCC(=O)Nc2ccc3ccn(CC[C@H](CO)n4cnc(C(N)=O)c4)c3c2)nc2ccccc21`: in [14], the Clearance turned out to be 35 mL/min/kg. The molecule also gave a Cmax in series [6] of under 100 ng/mL. The CLint scaled in [15] came to 97 mL/min/kg; in [9], 123 mL/min/kg. In series [11], this molecule displayed a Solubility of 4.2 µg/mL (≈ 8.41 µM). Moreover, in series [12], the AUC was under 100 ng·h/mL.

Consider `OC[C@H]1O[C@@H](n2cnc3c2N=CNC[C@H]3O)C[C@@H]1O` [PENTOSTATIN], for which the MST amounted to 28.5 days in [16], 42.5 days in [17] and 34 days in series [18].

As for `Nc1ncnc2c1ncn2[C@@H]1O[C@H](CO)[C@@H](O)[C@@H]1O` [VIDARABINE], the MST in series [19] is 23.5 days.
